Measurements as given in ChEMBL document CHEMBL1201862, “PubChem BioAssay data set” (2004).
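Tested at 5 concentrations; 48 h exposure; 96-well plates; endpoints linearly interpolated, else capped at highest concentration. Here, GI50 denotes the concentration required for 50% inhibition of growth.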 Calls of active or inactive are those of the source. Cut-off read from the data, not from the text of the source: active = GI50 up to about 1.1 µM and inactive = higher.

Legend:
Assay in all cases: NCI tumour cell line growth inhibition, 48 h
786-0 = system: 786-0
BT-549 = system: BT-549
CCRF-CEM = system: CCRF-CEM
COLO 205 = system: COLO 205
HL-60 = system: HL-60
HT-29 = system: HT-29
Hs-578T = system: Hs-578T
IGROV-1 = system: IGROV-1
K562 = system: K562
MDA-MB-435 = system: MDA-MB-435
MOLT-4 = system: MOLT-4
NCI-H226 = system: NCI-H226
NCI-H460 = system: NCI-H460
SF-268 = system: SF-268
SK-MEL-5 = system: SK-MEL-5
SN12C = system: SN12C
SNB-19 = system: SNB-19
SR = system: SR
T47D = system: T47D
UO-31 = system: UO-31

Row | SMILES | GI50 (786-0) | GI50 (BT-549) | GI50 (CCRF-CEM) | GI50 (COLO 205) | GI50 (HL-60) | GI50 (HT-29) | GI50 (Hs-578T) | GI50 (IGROV-1) | GI50 (K562) | GI50 (MDA-MB-435) | GI50 (MOLT-4) | GI50 (NCI-H226) | GI50 (NCI-H460) | GI50 (SF-268) | GI50 (SK-MEL-5) | GI50 (SN12C) | GI50 (SNB-19) | GI50 (SR) | GI50 (T47D) | GI50 (UO-31)
1 | O=C1C2Cc3c(n(C(=O)c4ccccc4)c4ccccc34)CC2C(=O)N1c1ccc(Nc2ccc(N3C(=O)C4Cc5c(n(C(=O)c6ccccc6)c6ccccc56)CC4C3=O)cc2)cc1 (stereo not given) | > 100 µM (inactive) | > 100 µM (inactive) | 40.4 µM (inactive) | > 100 µM (inactive) | 8.85 µM (inactive) | > 100 µM (inactive) | > 100 µM (inactive) | > 100 µM (inactive) | > 100 µM (inactive) | > 100 µM (inactive) | > 100 µM (inactive) | > 100 µM (inactive) | > 100 µM (inactive) | > 100 µM (inactive) | 58.1 µM (inactive) | > 100 µM (inactive) | > 100 µM (inactive) | 44.4 µM (inactive) | > 100 µM (inactive) | > 100 µM (inactive)
2 | CC(C)C(OC(=O)c1ccc(NCc2cc(O)ccc2O)cc1)C(C)C | 1.14 µM (inactive) | 0.547 µM (active) | 0.102 µM (active) | 0.865 µM (active) | 0.135 µM (active) | 3.34 µM (inactive) | 1.02 µM (active) | 0.855 µM (active) | 1.29 µM (inactive) | 1.29 µM (inactive) | 0.243 µM (active) | 1.29 µM (inactive) | 3.5 µM (inactive) | 1.87 µM (inactive) | 2.2 µM (inactive) | 2.42 µM (inactive) | 1.29 µM (inactive) | 0.617 µM (active) | 0.871 µM (active) | 1.17 µM (inactive)
3 | N#Cc1nc(-c2ccc(-c3nc(C#N)c(N)o3)cc2)oc1N | > 10 µM (inactive) | > 10 µM (inactive) | > 10 µM (inactive) | > 10 µM (inactive) | > 10 µM (inactive) | > 10 µM (inactive) | > 10 µM (inactive) | > 10 µM (inactive) | > 10 µM (inactive) | > 10 µM (inactive) | > 10 µM (inactive) | > 10 µM (inactive) | > 10 µM (inactive) | > 10 µM (inactive) | > 10 µM (inactive) | > 10 µM (inactive) | > 10 µM (inactive) | > 10 µM (inactive) | > 10 µM (inactive) | > 10 µM (inactive)
